Measured values: ChEMBL document CHEMBL2169745, “Photoinduced DNA cleavage by anthracene based hydroxamic acids” (Bioorg Med Chem Lett, 2012)
One block for each compound: values may come before it.

Columns and labels:
Format in all cases: nucleic-acid assay
Nucleic Acid [1] = experiment: Induction of DNA cleavage in Escherichia coli pBR322 DNA assessed as formation of relaxed circular DNA at 100 uM treated for 1 hr using ethidium bromide staining by agarose gel electrophoresis analysis in presence of UV light; parameters: scale not given: the % may be the effect or the level left
Nucleic Acid [2] = experiment: Induction of DNA cleavage in Escherichia coli pBR322 DNA assessed as formation of relaxed circular DNA at 100 uM treated for 1 hr using ethidium bromide staining by agarose gel electrophoresis analysis in presence of UV light and D2O; parameters: scale not given: the % may be the effect or the level left
Nucleic Acid [3] = experiment: Induction of DNA cleavage in Escherichia coli pBR322 DNA assessed as formation of relaxed circular DNA at 100 uM treated for 1 hr using ethidium bromide staining by agarose gel electrophoresis analysis in presence of UV light and 600 mM of NaN3; parameters: scale not given: the % may be the effect or the level left
Nucleic Acid [4] = experiment: Induction of DNA cleavage in Escherichia coli pBR322 DNA assessed as formation of relaxed circular DNA at 100 uM treated for 1 hr using ethidium bromide staining by agarose gel electrophoresis analysis in presence of UV light and 75 mM of NaN3; parameters: scale not given: the % may be the effect or the level left
Nucleic Acid [5] = experiment: Induction of DNA cleavage in Escherichia coli pBR322 DNA assessed as formation of relaxed circular DNA at 100 uM treated for 1 hr using ethidium bromide staining by agarose gel electrophoresis analysis in presence of UV light and 300 mM of NaN3; parameters: scale not given: the % may be the effect or the level left
Nucleic Acid [6] = experiment: Induction of DNA cleavage in Escherichia coli pBR322 DNA assessed as formation of relaxed circular DNA at 100 uM treated for 1 hr using ethidium bromide staining by agarose gel electrophoresis analysis in presence of UV light and 150 mM of NaN3; parameters: scale not given: the % may be the effect or the level left
Nucleic Acid [7] = experiment: Induction of DNA cleavage in Escherichia coli pBR322 DNA assessed as formation of relaxed circular DNA treated for 1 hr using ethidium bromide staining by agarose gel electrophoresis analysis in presence of UV light
Nucleic Acid [8] = experiment: Induction of DNA cleavage in Escherichia coli pBR322 DNA assessed as formation of relaxed circular DNA at 100 uM treated for 1 hr using ethidium bromide staining by agarose gel electrophoresis analysis in presence of UV light and 20 mM of NaN3; parameters: scale not given: the % may be the effect or the level left
Nucleic Acid [9] = experiment: Induction of DNA cleavage in Escherichia coli pBR322 DNA assessed as formation of relaxed circular DNA at 25 uM treated for 1 hr using ethidium bromide staining by agarose gel electrophoresis analysis in presence of UV light; parameters: scale not given: the % may be the effect or the level left
Nucleic Acid [10] = experiment: Induction of DNA cleavage in Escherichia coli pBR322 DNA assessed as formation of relaxed circular DNA at 100 uM treated for 1 hr using ethidium bromide staining by agarose gel electrophoresis analysis in presence of UV light and DMSO; parameters: scale not given: the % may be the effect or the level left
Nucleic Acid [11] = experiment: Induction of DNA cleavage in Escherichia coli pBR322 DNA assessed as formation of relaxed circular DNA at 75 uM treated for 1 hr using ethidium bromide staining by agarose gel electrophoresis analysis in presence of UV light; parameters: scale not given: the % may be the effect or the level left
Nucleic Acid [12] = experiment: Induction of DNA cleavage in Escherichia coli pBR322 DNA assessed as formation of relaxed circular DNA at 100 uM treated for 1 hr using ethidium bromide staining by agarose gel electrophoresis analysis in presence of UV light and ascorbic acid; parameters: scale not given: the % may be the effect or the level left
Nucleic Acid [13] = experiment: Induction of DNA cleavage in Escherichia coli pBR322 DNA assessed as formation of relaxed circular DNA at 50 uM treated for 1 hr using ethidium bromide staining by agarose gel electrophoresis analysis in presence of UV light; parameters: scale not given: the % may be the effect or the level left
Nucleic Acid [14] = experiment: Induction of DNA cleavage in Escherichia coli pBR322 DNA assessed as formation of relaxed circular DNA at 40 uM treated for 1 hr using ethidium bromide staining by agarose gel electrophoresis analysis in presence of UV light; parameters: scale not given: the % may be the effect or the level left
Nucleic Acid [15] = experiment: Induction of DNA cleavage in Escherichia coli pBR322 DNA assessed as formation of relaxed circular DNA at 10 uM treated for 1 hr using ethidium bromide staining by agarose gel electrophoresis analysis in presence of UV light; parameters: scale not given: the % may be the effect or the level left
Nucleic Acid [16] = experiment: Induction of DNA cleavage in Escherichia coli pBR322 DNA assessed as formation of relaxed circular DNA at 100 uM treated for 1 hr using ethidium bromide staining by agarose gel electrophoresis analysis in presence of bubbling with O2 gas; parameters: scale not given: the % may be the effect or the level left
Nucleic Acid [17] = experiment: Induction of DNA cleavage in Escherichia coli pBR322 DNA assessed as formation of relaxed circular DNA at 100 uM treated for 1 hr using ethidium bromide staining by agarose gel electrophoresis analysis in presence of UV light and DABCO; parameters: scale not given: the % may be the effect or the level left
Nucleic Acid [18] = experiment: Induction of DNA cleavage in Escherichia coli pBR322 DNA assessed as formation of relaxed circular DNA at 100 uM treated for 1 hr using ethidium bromide staining by agarose gel electrophoresis analysis in presence of UV light and 40 mM of NaN3; parameters: scale not given: the % may be the effect or the level left
Nucleic Acid [19] = experiment: Induction of DNA cleavage in Escherichia coli pBR322 DNA assessed as formation of relaxed circular DNA at 100 uM treated for 1 hr using ethidium bromide staining by agarose gel electrophoresis analysis in presence of bubbling with Ar gas; parameters: scale not given: the % may be the effect or the level left

- Activity (Nucleic Acid [1]): 15%
Structure (SMILES): O=C(/C=C/c1cccc2ccccc12)NC(Cc1ccccc1)C(=O)NO (stereo not drawn)

- Activity (Nucleic Acid [1]): 16%
Structure (SMILES): O=C(NO)C(Cc1ccccc1)NCc1cccc2ccccc12 (stereo not drawn)

- Activity (Nucleic Acid [1]): 99%
Structure (SMILES): O=C(/C=C/c1c2ccccc2cc2ccccc12)NC(C(=O)NO)c1ccccc1 (stereo not drawn)

- Activity (Nucleic Acid [1]): 35%
Structure (SMILES): O=C(/C=C/c1c2ccccc2cc2ccccc12)NC(Cc1ccccc1)C(=O)O (stereo not drawn)

- Activity (Nucleic Acid [1]): 89%
Structure (SMILES): O=C(/C=C/c1c2ccccc2cc2ccccc12)NC(Cc1c[nH]c2ccccc12)C(=O)NO (stereo not drawn)

- Activity (Nucleic Acid [1]): 98%
Structure (SMILES): O=C(NO)C(NCc1c2ccccc2cc2ccccc12)c1ccccc1 (stereo not drawn)

- Activity (Nucleic Acid [1]): 60%
Structure (SMILES): O=C(O)C(Cc1ccccc1)NCc1c2ccccc2cc2ccccc12 (stereo not drawn)

- Activity (Nucleic Acid [1]): 91%
Structure (SMILES): O=C(NO)C(Cc1c[nH]c2ccccc12)NCc1c2ccccc2cc2ccccc12 (stereo not drawn)

- Activity (Nucleic Acid [1]): 98%
Structure (SMILES): O=C(/C=C/c1c2ccccc2cc2ccccc12)NC(Cc1ccccc1)C(=O)NO (stereo not drawn)

- Activity (Nucleic Acid [2]): 100%
- Activity (Nucleic Acid [3]): 62%
- Activity (Nucleic Acid [1]): 97%
- Activity (Nucleic Acid [4]): 77%
- Activity (Nucleic Acid [5]): 62%
- Activity (Nucleic Acid [6]): 63%
- Activity (Nucleic Acid [7]): Dose-dependent effect
- Activity (Nucleic Acid [8]): 97%
- Activity (Nucleic Acid [9]): 4%
- Activity (Nucleic Acid [10]): 54%
- Activity (Nucleic Acid [11]): 67%
- Activity (Nucleic Acid [12]): 37%
- Activity (Nucleic Acid [13]): 25%
- Activity (Nucleic Acid [14]): 10%
- Activity (Nucleic Acid [15]): 2%
- Activity (Nucleic Acid [16]): 100%
- Activity (Nucleic Acid [17]): 74%
- Activity (Nucleic Acid [18]): 86%
- Activity (Nucleic Acid [19]): 75%
Structure (SMILES): O=C(NO)C(Cc1ccccc1)NCc1c2ccccc2cc2ccccc12 (stereo not drawn)
